Measurements reported in ChEMBL document CHEMBL3763148, “Synthesis, structure elucidation, DNA-PK and PI3K and anti-cancer activity of 8- and 6-aryl-substituted-1-3-benzoxazines” (Eur J Med Chem, 2016).

What was measured:
SR = test: Cytotoxicity against human SR cells assessed as cell growth inhibition at 10 uM after 48 hrs by SRB assay relative to control; type: functional; conditions: read-out: GI
[1] = Cytotoxicity against human HCT116 cells assessed as cell growth inhibition at 10 uM after 48 hrs by SRB assay relative to control; type: functional; conditions: HCT-116, 48 h, read-out: GI
ACHN = test: Cytotoxicity against human ACHN cells assessed as cell growth inhibition at 10 uM after 48 hrs by SRB assay relative to control; type: functional; conditions: read-out: GI
[2] = Cytotoxicity against human SF295 cells assessed as cell growth inhibition at 10 uM after 48 hrs by SRB assay relative to control; type: functional; conditions: SF-295, 48 h, read-out: GI
MCF7 = test: Cytotoxicity against human MCF7 cells assessed as cell growth inhibition at 10 uM after 48 hrs by SRB assay relative to control; type: functional; conditions: MCF7, 48 h, read-out: GI
[3] = Cytotoxicity against human HOP92 cells assessed as cell growth inhibition at 10 uM after 48 hrs by SRB assay relative to control; type: functional; conditions: HOP-92, 48 h, read-out: GI
[4] = Cytotoxicity against human SW620 cells assessed as cell growth inhibition at 10 uM after 48 hrs by SRB assay relative to control; type: functional; conditions: SW-620, 48 h, read-out: GI
[5] = Cytotoxicity against human IGROV1 cells assessed as cell growth inhibition at 10 uM after 48 hrs by SRB assay relative to control; type: functional; conditions: IGROV-1, 48 h, read-out: GI
[6] = molecular target: DNA-dependent protein kinase catalytic subunit (Homo sapiens, UniProt P78527); test: Inhibition of human DNA-PK using EPPLSQEAFADLWKK as substrate by HTRF assay
HT-29 = test: Cytotoxicity against human HT-29 cells assessed as cell growth inhibition at 10 uM after 48 hrs by SRB assay relative to control; type: functional; conditions: HT-29, 48 h, read-out: GI
SK-MEL-28 = test: Cytotoxicity against human SK-MEL-28 cells assessed as cell growth inhibition at 10 uM after 48 hrs by SRB assay relative to control; type: functional; conditions: SK-MEL-28, 48 h, read-out: GI
[7] = Cytotoxicity against human OVCAR8 cells assessed as cell growth inhibition at 10 uM after 48 hrs by SRB assay relative to control; type: functional; conditions: OVCAR-8, 48 h, read-out: GI
A549 = test: Cytotoxicity against human A549 cells assessed as cell growth inhibition at 10 uM after 48 hrs by SRB assay relative to control; type: functional; conditions: A549, 48 h, read-out: GI
[8] = Cytotoxicity against human OVCAR4 cells assessed as cell growth inhibition at 10 uM after 48 hrs by SRB assay relative to control; type: functional; conditions: OVCAR-4, 48 h, read-out: GI
NCI-H23 = test: Cytotoxicity against human NCI-H23 cells assessed as cell growth inhibition at 10 uM after 48 hrs by SRB assay relative to control; type: functional; conditions: NCI-H23, 48 h, read-out: GI
[9] = Cytotoxicity against human NCI-ADR-RES cells assessed as cell growth inhibition at 10 uM after 48 hrs by SRB assay relative to control; type: functional; conditions: read-out: GI
[10] = Cytotoxicity against human SF268 cells assessed as cell growth inhibition at 10 uM after 48 hrs by SRB assay relative to control; type: functional; conditions: SF-268, 48 h, read-out: GI
[11] = Cytotoxicity against human PC3 cells assessed as cell growth inhibition at 10 uM after 48 hrs by SRB assay relative to control; type: functional; conditions: PC-3, 48 h, read-out: GI
SN12C = test: Cytotoxicity against human SN12C cells assessed as cell growth inhibition at 10 uM after 48 hrs by SRB assay relative to control; type: functional; conditions: read-out: GI
NCI-H522 = test: Cytotoxicity against human NCI-H522 cells assessed as cell growth inhibition at 10 uM after 48 hrs by SRB assay relative to control; type: functional; conditions: NCI-H522, 48 h, read-out: GI
T47D = test: Cytotoxicity against human T47D cells assessed as cell growth inhibition at 10 uM after 48 hrs by SRB assay relative to control; type: functional; conditions: read-out: GI
M14 = test: Cytotoxicity against human M14 cells assessed as cell growth inhibition at 10 uM after 48 hrs by SRB assay relative to control; type: functional; conditions: M14, 48 h, read-out: GI
A498 = test: Cytotoxicity against human A498 cells assessed as cell growth inhibition at 10 uM after 48 hrs by SRB assay relative to control; type: functional; conditions: A498, 48 h, read-out: GI
MDA-MB-435 = test: Cytotoxicity against human MDA-MB-435 cells assessed as cell growth inhibition at 10 uM after 48 hrs by SRB assay relative to control; type: functional; conditions: MDA-MB-435, 48 h, read-out: GI
[12] = Cytotoxicity against human HCC2998 cells assessed as cell growth inhibition at 10 uM after 48 hrs by SRB assay relative to control; type: functional; conditions: HCC 2998, 48 h, read-out: GI
MDA-MB-231 = test: Cytotoxicity against human MDA-MB-231 cells assessed as cell growth inhibition at 10 uM after 48 hrs by SRB assay relative to control; type: functional; conditions: MDA-MB-231, 48 h, read-out: GI
[13] = Cytotoxicity against human OVCAR3 cells assessed as cell growth inhibition at 10 uM after 48 hrs by SRB assay relative to control; type: functional; conditions: OVCAR-3, 48 h, read-out: GI
[14] = Cytotoxicity against human SNB75 cells assessed as cell growth inhibition at 10 uM after 48 hrs by SRB assay relative to control; type: functional; conditions: SNB-75, 48 h, read-out: GI
[15] = Cytotoxicity against human OVCAR5 cells assessed as cell growth inhibition at 10 uM after 48 hrs by SRB assay relative to control; type: functional; conditions: OVCAR-5, 48 h, read-out: GI
[16] = Cytotoxicity against human DU145 cells assessed as cell growth inhibition at 10 uM after 48 hrs by SRB assay relative to control; type: functional; conditions: DU-145, 48 h, read-out: GI
[17] = Cytotoxicity against human RXF393 cells assessed as cell growth inhibition at 10 uM after 48 hrs by SRB assay relative to control; type: functional; conditions: RXF 393, 48 h, read-out: GI
[18] = Cytotoxicity against human RPMI8226 cells assessed as cell growth inhibition at 10 uM after 48 hrs by SRB assay relative to control; type: functional; conditions: RPMI-8226, 48 h, read-out: GI
[19] = Cytotoxicity against human HOP62 cells assessed as cell growth inhibition at 10 uM after 48 hrs by SRB assay relative to control; type: functional; conditions: HOP-62, 48 h, read-out: GI
[20] = Cytotoxicity against human Hs 578T cells assessed as cell growth inhibition at 10 uM after 48 hrs by SRB assay relative to control; type: functional; conditions: read-out: GI
[21] = Cytotoxicity against human HCT15 cells assessed as cell growth inhibition at 10 uM after 48 hrs by SRB assay relative to control; type: functional; conditions: HCT-15, 48 h, read-out: GI
K562 = test: Cytotoxicity against human K562 cells assessed as cell growth inhibition at 10 uM after 48 hrs by SRB assay relative to control; type: functional; conditions: K562, 48 h, read-out: GI

Chain of DNA-dependent protein kinase catalytic subunit (P78527 whole entry): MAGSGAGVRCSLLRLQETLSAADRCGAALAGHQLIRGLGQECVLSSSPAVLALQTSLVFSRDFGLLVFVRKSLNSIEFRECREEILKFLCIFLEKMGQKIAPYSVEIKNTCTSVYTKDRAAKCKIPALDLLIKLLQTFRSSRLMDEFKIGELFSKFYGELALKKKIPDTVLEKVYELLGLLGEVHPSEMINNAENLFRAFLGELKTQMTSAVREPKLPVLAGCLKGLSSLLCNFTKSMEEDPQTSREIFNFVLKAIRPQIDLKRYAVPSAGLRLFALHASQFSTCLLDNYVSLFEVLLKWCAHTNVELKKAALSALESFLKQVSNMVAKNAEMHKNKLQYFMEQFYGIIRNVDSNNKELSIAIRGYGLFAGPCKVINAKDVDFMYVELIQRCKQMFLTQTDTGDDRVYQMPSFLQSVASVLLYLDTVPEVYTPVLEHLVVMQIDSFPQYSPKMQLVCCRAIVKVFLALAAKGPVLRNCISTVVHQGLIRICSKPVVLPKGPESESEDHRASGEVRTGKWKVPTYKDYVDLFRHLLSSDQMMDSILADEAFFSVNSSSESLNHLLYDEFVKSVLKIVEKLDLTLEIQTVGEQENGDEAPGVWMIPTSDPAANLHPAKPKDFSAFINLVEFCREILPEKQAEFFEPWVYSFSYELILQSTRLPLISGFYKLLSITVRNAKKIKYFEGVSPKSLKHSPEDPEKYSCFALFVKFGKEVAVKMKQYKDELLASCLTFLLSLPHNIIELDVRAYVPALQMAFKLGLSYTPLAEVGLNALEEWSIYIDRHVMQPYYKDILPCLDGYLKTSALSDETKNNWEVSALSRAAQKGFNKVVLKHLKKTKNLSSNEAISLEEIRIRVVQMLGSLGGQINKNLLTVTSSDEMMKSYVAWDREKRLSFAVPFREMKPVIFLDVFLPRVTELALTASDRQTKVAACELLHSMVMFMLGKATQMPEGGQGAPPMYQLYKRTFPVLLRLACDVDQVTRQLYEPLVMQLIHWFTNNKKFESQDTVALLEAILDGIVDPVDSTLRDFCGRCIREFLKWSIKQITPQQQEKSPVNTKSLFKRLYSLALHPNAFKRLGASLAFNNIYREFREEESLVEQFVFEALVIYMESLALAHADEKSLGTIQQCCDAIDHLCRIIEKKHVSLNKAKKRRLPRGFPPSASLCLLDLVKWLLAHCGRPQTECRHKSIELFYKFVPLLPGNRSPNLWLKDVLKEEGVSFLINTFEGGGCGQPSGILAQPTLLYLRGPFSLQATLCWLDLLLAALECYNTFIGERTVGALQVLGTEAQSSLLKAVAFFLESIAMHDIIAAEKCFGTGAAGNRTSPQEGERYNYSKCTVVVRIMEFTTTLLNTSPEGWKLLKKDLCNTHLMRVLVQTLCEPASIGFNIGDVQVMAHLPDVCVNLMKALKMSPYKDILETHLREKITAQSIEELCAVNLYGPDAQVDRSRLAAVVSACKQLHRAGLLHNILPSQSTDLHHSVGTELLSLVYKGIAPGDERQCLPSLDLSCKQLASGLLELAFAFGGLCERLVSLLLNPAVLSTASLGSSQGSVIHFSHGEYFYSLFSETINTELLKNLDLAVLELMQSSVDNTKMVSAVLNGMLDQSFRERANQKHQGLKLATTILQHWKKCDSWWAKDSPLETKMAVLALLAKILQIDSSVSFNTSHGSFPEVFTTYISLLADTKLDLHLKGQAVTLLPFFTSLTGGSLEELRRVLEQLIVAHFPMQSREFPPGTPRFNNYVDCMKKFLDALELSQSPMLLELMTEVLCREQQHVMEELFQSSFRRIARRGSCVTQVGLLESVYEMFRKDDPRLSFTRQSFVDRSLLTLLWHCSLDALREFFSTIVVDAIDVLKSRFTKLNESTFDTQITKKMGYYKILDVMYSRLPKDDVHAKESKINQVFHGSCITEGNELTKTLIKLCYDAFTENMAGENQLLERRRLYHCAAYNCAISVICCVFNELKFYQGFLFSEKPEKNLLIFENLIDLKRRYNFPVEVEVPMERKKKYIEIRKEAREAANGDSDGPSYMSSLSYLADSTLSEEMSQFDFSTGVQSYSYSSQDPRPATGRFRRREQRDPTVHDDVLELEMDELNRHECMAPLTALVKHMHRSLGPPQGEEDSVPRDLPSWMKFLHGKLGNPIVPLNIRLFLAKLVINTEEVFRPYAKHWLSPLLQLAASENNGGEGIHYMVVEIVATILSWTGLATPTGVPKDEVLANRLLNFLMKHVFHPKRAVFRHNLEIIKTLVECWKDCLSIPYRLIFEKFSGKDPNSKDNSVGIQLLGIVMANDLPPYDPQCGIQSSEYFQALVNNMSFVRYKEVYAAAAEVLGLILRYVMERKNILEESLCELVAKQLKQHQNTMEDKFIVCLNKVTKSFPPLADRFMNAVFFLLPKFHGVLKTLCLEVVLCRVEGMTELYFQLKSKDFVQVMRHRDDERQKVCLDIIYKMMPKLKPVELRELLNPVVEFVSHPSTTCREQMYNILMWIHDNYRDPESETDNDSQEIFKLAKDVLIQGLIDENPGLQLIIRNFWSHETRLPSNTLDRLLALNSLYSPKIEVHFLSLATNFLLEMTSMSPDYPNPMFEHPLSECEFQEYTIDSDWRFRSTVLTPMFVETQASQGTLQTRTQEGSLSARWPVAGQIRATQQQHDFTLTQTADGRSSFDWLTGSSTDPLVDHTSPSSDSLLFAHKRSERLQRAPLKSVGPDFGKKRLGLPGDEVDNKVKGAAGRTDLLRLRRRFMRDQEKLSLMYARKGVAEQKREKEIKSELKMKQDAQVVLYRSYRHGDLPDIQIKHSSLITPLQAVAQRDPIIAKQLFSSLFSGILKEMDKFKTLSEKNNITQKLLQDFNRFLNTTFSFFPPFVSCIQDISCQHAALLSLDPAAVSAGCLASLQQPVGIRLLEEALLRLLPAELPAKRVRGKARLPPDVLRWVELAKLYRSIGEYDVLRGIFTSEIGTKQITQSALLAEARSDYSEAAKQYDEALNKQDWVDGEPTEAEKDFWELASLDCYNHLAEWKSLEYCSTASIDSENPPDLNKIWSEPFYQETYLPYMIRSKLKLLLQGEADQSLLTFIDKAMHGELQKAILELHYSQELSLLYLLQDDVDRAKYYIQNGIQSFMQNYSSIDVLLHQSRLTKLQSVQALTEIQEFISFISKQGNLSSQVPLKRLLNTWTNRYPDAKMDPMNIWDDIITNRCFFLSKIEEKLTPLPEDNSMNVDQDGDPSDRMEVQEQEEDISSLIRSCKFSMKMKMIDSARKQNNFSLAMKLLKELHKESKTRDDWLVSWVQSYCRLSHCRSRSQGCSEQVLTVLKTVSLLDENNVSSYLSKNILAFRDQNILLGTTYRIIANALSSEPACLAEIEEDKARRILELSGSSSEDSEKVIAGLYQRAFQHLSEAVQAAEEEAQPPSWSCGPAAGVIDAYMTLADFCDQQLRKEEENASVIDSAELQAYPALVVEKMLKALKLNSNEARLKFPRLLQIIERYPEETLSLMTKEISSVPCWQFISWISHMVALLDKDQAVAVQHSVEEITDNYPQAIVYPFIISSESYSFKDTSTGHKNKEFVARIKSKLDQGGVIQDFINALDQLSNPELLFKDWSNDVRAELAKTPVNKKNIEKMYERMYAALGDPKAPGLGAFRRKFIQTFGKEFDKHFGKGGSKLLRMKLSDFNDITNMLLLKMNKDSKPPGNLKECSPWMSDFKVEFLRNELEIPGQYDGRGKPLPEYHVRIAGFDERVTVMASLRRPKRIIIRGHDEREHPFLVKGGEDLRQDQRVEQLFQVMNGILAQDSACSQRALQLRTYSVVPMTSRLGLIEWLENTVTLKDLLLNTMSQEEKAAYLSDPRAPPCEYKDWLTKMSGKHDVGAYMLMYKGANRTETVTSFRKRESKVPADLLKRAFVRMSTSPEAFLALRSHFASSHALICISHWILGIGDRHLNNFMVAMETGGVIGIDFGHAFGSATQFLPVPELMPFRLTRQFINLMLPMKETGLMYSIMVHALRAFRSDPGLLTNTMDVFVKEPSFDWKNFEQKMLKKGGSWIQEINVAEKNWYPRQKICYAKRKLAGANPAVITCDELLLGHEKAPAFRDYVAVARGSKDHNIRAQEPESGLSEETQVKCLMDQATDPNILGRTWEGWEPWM

Structure (SMILES)	inhibition of growth at 10 µM (SR)	inhibition of growth at 10 µM [1]	inhibition of growth at 10 µM (ACHN)	inhibition of growth at 10 µM [2]	inhibition of growth at 10 µM (MCF7)	inhibition of growth at 10 µM [3]	inhibition of growth at 10 µM [4]	inhibition of growth at 10 µM [5]	IC50 [6]	inhibition of growth at 10 µM (HT-29)	inhibition of growth at 10 µM (SK-MEL-28)	inhibition of growth at 10 µM [7]	inhibition of growth at 10 µM (A549)	inhibition of growth at 10 µM [8]	inhibition of growth at 10 µM (NCI-H23)	inhibition of growth at 10 µM [9]	inhibition of growth at 10 µM [10]	inhibition of growth at 10 µM [11]	inhibition of growth at 10 µM (SN12C)	inhibition of growth at 10 µM (NCI-H522)	also measured
O=c1nc(N2CCOCC2)oc2c(-c3cccc4c3oc3ccccc34)cccc12	34.7%	6.54%	6.98%	0.3%	11.3%	45.6%	0.96%	0.3%	0.269 µM	1.56%	2.4%	3.88%	12%	-1.43%	11.1%	12.8%	9.26%	23.2%	5.07%	23%	inhibition of growth at 10 µM (T47D): 15.1%; inhibition of growth at 10 µM (M14): -2.42%; inhibition of growth at 10 µM (A498): 27.9%; inhibition of growth at 10 µM (MDA-MB-435): 17.1%; inhibition of growth at 10 µM [12]: -4.36%; inhibition of growth at 10 µM (MDA-MB-231): 18%; inhibition of growth at 10 µM [13]: 2.85%; inhibition of growth at 10 µM [14]: 41.5%; inhibition of growth at 10 µM [15]: 10.7%; inhibition of growth at 10 µM [16]: 1.77%; inhibition of growth at 10 µM [17]: 15%; inhibition of growth at 10 µM [18]: 1.19%; inhibition of growth at 10 µM [19]: 13%; inhibition of growth at 10 µM [20]: 14.6%; inhibition of growth at 10 µM [21]: 13.1%; inhibition of growth at 10 µM (K562): 19.4%
O=c1nc(N2CCOCC2)oc2c(-c3ccsc3)cccc12	21.9%	2.6%	2.44%	17.1%	22.3%	40.7%	2.66%	7.97%	9.8 µM	12.7%	8.4%	3.77%	3.82%	3.41%	15.4%	13.3%	13.1%	24.6%	9.14%	0.83%	inhibition of growth at 10 µM (T47D): 26.5%; inhibition of growth at 10 µM (M14): 3.28%; inhibition of growth at 10 µM (A498): 37.2%; inhibition of growth at 10 µM (MDA-MB-435): 3.77%; inhibition of growth at 10 µM [12]: -2.71%; inhibition of growth at 10 µM (MDA-MB-231): 6.78%; inhibition of growth at 10 µM [13]: 11.8%; inhibition of growth at 10 µM [14]: 38.8%; inhibition of growth at 10 µM [15]: 10.8%; inhibition of growth at 10 µM [16]: 0.16%; inhibition of growth at 10 µM [17]: 14.4%; inhibition of growth at 10 µM [18]: 3.35%; inhibition of growth at 10 µM [19]: 15.3%; inhibition of growth at 10 µM [20]: 9.35%; inhibition of growth at 10 µM [21]: 6.07%; inhibition of growth at 10 µM (K562): -1.04%
COc1ccc(-c2cccc3c(=O)nc(N4CCOCC4)oc23)cc1	26.1%	7.05%	6.19%	2.78%	17.4%	34.8%	0.87%	0.87%	9.94 µM	10.8%	2.38%	4.78%	5.88%	2.85%	14.3%	9.12%	6.91%	14.9%	8.75%	12.8%	inhibition of growth at 10 µM (T47D): 38.5%; inhibition of growth at 10 µM (M14): -0.43%; inhibition of growth at 10 µM (A498): 27.1%; inhibition of growth at 10 µM (MDA-MB-435): 1.03%; inhibition of growth at 10 µM [12]: -5.73%; inhibition of growth at 10 µM (MDA-MB-231): 3.13%; inhibition of growth at 10 µM [13]: 5.94%; inhibition of growth at 10 µM [14]: 38.2%; inhibition of growth at 10 µM [15]: 4.76%; inhibition of growth at 10 µM [16]: 1.58%; inhibition of growth at 10 µM [17]: 7.94%; inhibition of growth at 10 µM [18]: -0.31%; inhibition of growth at 10 µM [19]: 5.81%; inhibition of growth at 10 µM [20]: 11.1%; inhibition of growth at 10 µM [21]: 3.13%; inhibition of growth at 10 µM (K562): 7.02%
O=c1nc(N2CCOCC2)oc2c(-c3cccs3)cccc12	18%	2.65%	2.88%	-0.99%	21.9%	44.4%	1.09%	8.05%	7.12 µM	6.61%	2.22%	5%	5.77%	2.16%	13%	11%	5.21%	17.2%	-3.08%	13.8%	inhibition of growth at 10 µM (T47D): 17.8%; inhibition of growth at 10 µM (M14): 0.86%; inhibition of growth at 10 µM (A498): 36.8%; inhibition of growth at 10 µM (MDA-MB-435): -0.12%; inhibition of growth at 10 µM [12]: -4.81%; inhibition of growth at 10 µM (MDA-MB-231): -6.21%; inhibition of growth at 10 µM [13]: 2.61%; inhibition of growth at 10 µM [14]: 32.7%; inhibition of growth at 10 µM [15]: 4.55%; inhibition of growth at 10 µM [16]: -2.35%; inhibition of growth at 10 µM [17]: 9.88%; inhibition of growth at 10 µM [18]: -0.55%; inhibition of growth at 10 µM [19]: 8.34%; inhibition of growth at 10 µM [20]: 7.89%; inhibition of growth at 10 µM [21]: 0.33%; inhibition of growth at 10 µM (K562): 0.8%
